The numbers were not newly measured in patent US20240398820A1, “METHODS FOR TREATMENT OF PULMONARY HYPERTENSION” (Respira Therapeutics, Inc., priority 2023, published 2024), which cites them from elsewhere.

For data set [1] the following is noted: human patients with PAH, 5 mg orally twice per day.
The conditions of data set [2]: in vivo.
For data set [3] the following is noted: inhaled, following pulmonary administration.

Turning to `CCCc1nc(C)c2c(=O)nc(-c3cc(S(=O)(=O)N4CCN(CC)CC4)ccc3OCC)[nH]n12` [Vardenafil, 1-[[3-(1,4-dihydro-5-methyl-4-oxo-7-propylimidazo[5,1-f][1,2,4]triazin-2-yl)-4-ethoxyphenyl]sulfonyl]-4-ethyl-piperazine], the dissociation rate entry is recorded as “slow dissociation rate”. Further, the “safety and efficacy in PAH” value in data set [1] was “safe and effective”. Also, the clearance entry in data set [2] is recorded as “rapid clearance”. In addition, the tmax in data set [3] is given as not above 2 min.
